Tested on: SK-Br3 cells
Assay: TUNEL apoptosis assay, SK-Br3
Assay type: cell-based, human
Conditions: GLA 10 μg/mL, trastuzumab 10 μg/mL, alone or together, 48 hours
Protocol: FIG. 6. […] After 72 hours, a TUNEL analysis was performed using the DeadEnd® Fluorometric TUNEL System (Promega Inc.) according to the manufacturer's protocol. The immunofluorescence photomicrographs of cells undergoing apoptosis (green staining) and the corresponding DAPI-counterstained photomicrographs are shown. […] Equal amounts of total protein (50 μg per lane) were subjected to Western blot analyses with a specific antibody against the p85 fragment of PARP, and then re-probed with a β-actin antibody. […] For each pair of columns, the height of the columns on the left represents the sum of the effect of each agent alone and, therefore, the expected apoptotic cell death if their effect was additive when used in combination. […] A) Cell surface expression of Her-2/neu protein in BT-474 and SK-Br3 cells was determined by flow cytometry using a mouse anti-Her-2/neu antibody directed against the extracellular domain of the p185^Her-2/neu oncoprotein (clone Ab-5; Oncogene Research Products; San Diego, Calif.). […] The mean fluorescence signal associated with cells for labeled p185^Her-2/neu was quantified using the Geo Mean (GM) fluorescence parameter provided with the software. […] Immunoreactive bands were detected by enhanced chemiluminescence reagent (Pierce, Rockford, Ill.). […] Densitometric values of protein bands were quantified using Scion Imaging Software (Scion Corp., Frederick, Md.).

CCCCCC=CCC=CCC=CCCCCC(=O)O [GLA, 6,9,12-octadecatrienoic acid]
cells that underwent apoptosis (TUNEL): 3% (95% CI=2 to 4%)

Reference: patent US20070207975A1, “Materials and methods for treating and preventing Her-2/neu overexpressing, FAS-elevated cancer cells” (EVANSTON NORTHWESTERN HEALTHCARE, priority 2006, published 2007)
